Marks after values point to notes of the source that are not given here.
Tests used:
adhesion formation = experiment: Rabbit uterine horn model of surgical adhesions; assay type: in vivo
Description: New Zealand female white rabbits were anesthetized and a midline incision made through the skin and the abdominal wall. Both uterine horns were located and exteriorized. Using a French Catheter Scale, the diameter of each uterine horn was measured and recorded. Only those rabbits with uterine horns measuring size 8 to 16, inclusive, on the French scale were used. Using a number 10 scalpel blade, 5 cm lengths of each uterine horn, approximately 1 cm from the uterine bifurcation, were scraped, 40 times per side, until punctuate bleeding. Hemostasis was achieved by tamponade.
Test agent (0.4 to 2.5 ml) was applied over the horns via an 18 gauge needle. Uterine horns were replaced into the pelvis and the abdominal incision closed.
Body weights of the animals were recorded. The abdomen was opened and the surgical site inspected. Adhesions were graded by a blinded observer as follows:
The total length (cm) of each uterine horn involved with adhesions was estimated and recorded.
Adhesions were grades as 0 (absent), 1.0 (filmy adhesions) and 2.0 (tenacious, requiring sharp dissection).
The degree of uterine convolution was recorded according to the following scale:
No convolution: Straight lengths of adherent or non-adherent horns which are clearly discerned.
Completely convoluted: It is impossible to discern uterine anatomy because the horn is completely entangled.

neutrophils = conditions: human, 1 h, 46 µM
Description: Neutrophils were prepared from freshly collected human citrated whole blood. Briefly, 400 ml of blood were mixed with 80 ml of 4% dextran T500 (Phamacia LKB, Biotechnology AB Uppsala, Sweden) in HBSS and allowed to settle for 1 hour. Plasma was collected continuously and 5 ml applied to 5 ml of Ficoll Paque (Pharmacia) in 15 ml polypropylene tubes (Corning, N.Y.). Following centrifugation at 500 g for 30 minutes, the neutrophil pellets were washed free of erythrocytes by 20 seconds of hypotonic shock. Neutrophils were resuspended in HBSS, kept on ice and used for experiments within 3 hours. Neutrophil viability and purity was always greater than 90%.
To determine the effect of the anti-microtubule agents on neutrophil viability the release of the cytoplasmic marker enzyme, lactate dehydrogenase (LDH) was measured. Control tubes containing cells with drug (crystals absent) from degranulation experiments were also assayed for LDH.

[1] = tested on: fibrous astrocytes (GFAP); experiment: GFAP and astrocytes in brain, transgenic mouse model of demyelinating disease; assay type: in vivo; conditions: brain sections, transgenic mice
Description: Three days following the tenth injection, the experimental study was terminated and the brain tissues processed for histological analysis. For light microscopy, tissues were fixed in formalin and embedded in paraffin. Sections were stained with anti-GFAP antibody (DACO), washed and then reacted with secondary antibody conjugated with HPP. The sections were stained for HPP and counter-stained with haematoxylin.

[2] = tested on: AP-1 DNA binding activity; experiment: IL-1 induced AP-1 DNA binding (gel mobility shift); assay type: cell-based; conditions: 10^−7 to 10^−5 M, pretreated 24 hours
Description: Binding activity was assayed with a radiolabeled human AP-1 sequence probe and gel mobility shift assay. […] The “com” lane contains excess unlabeled AP-1 oligonucleotide. The results shown are representative of tree independent experiments.

[3] = Paclitaxel solubility in permeation enhancers; assay type: physicochemical; conditions: 37° C.
Description: The following permeation enhancers were examined: Transcutol®, ethanol, propylene glycol, isopropyl myristate, oleic acid and Transcutol:isopropyl myristate (9:1 v:v). […] A sample of 0.5 ml of the fluid from each vial was centrifuged at 37° C. and 13000 rpm for 2 minutes. Aliquots (0.1 ml) of supernatant from the centrifuge tubes were transferred to volumetric flasks and diluted with methanol. Paclitaxel content was assessed by high pressure liquid chromatography (HPLC).

collagenase (MMP-1) mRNA = experiment: IL-1 induced collagenase mRNA expression in chondrocytes (Northern blot); assay type: cell-based, calf
Description: Total RNA was isolated, and the MMP-1 mRNA levels were determined by Northern blot analysis. The blots were subsequently stripped and reprobed with ^32P-radiolabeled rat GAPDH cDNA, which was used as a housekeeping gene. The results shown are representative of four independent experiments. Quantitation of collagenase-1 and stromelysin-expression mRNA levels. The MMP-1 and MMP-3 expression levels were normalized with GAPDH.
Primary chondrocyte cultures were freshly isolated from calf cartilage. The cells were plated at 2.5×10^6 per ml in 100×20 mm culture dishes and incubated in Ham's F12 medium containing 5% FBS overnight at 37° C. […] IL-1 (20 ng/ml) was then added to each plate and the plates incubated for an additional 18 hours. Total RNA was isolated by the acidified guanidine isothiocyanate method and subjected to electrophoresis on a denatured gel. Denatured RNA samples (15 μg) were analyzed by gel electrophoresis in a 1% denatured gel, transferred to a nylon membrane and hydridized with the ^32P-labeled collagenase cDNA probe. ^32P-labeled glyceraldehyde phosphate […] (GAPDH) cDNA as an internal standard to ensure roughly equal loading. The exposed films were scanned and quantitatively analyzed with ImageQuant.

EOMA cells = experiment: Endothelial cell apoptosis (DAPI staining); assay type: cell-based; conditions: 24 hours
Description: The cells were fixed with 3.7% formaldehyde in phosphate buffered saline for 20 minutes, stained with DAPI (4′-6-diaminido-2-phenylindole), 1 ug/ml, and examined with a 40×objective under epifluorescent optics. Apoptotic cells were evaluated by scoring cells for fragmented nuclei and condensed chromatin.

[4] = tested on: MDAY-D2 tumors on the CAM; experiment: Tumor angiogenesis: MDAY-D2 tumors on the CAM; assay type: in vivo, chick; conditions: 20% paclitaxel-loaded thermopaste
Description: Fertilized domestic chick embryos are incubated for 4 days prior to having their shells removed. The egg contents are emptied by removing the shell located around the airspace, severing the interior shell membrane, perforating the opposite end of the shell and allowing the egg contents to gently slide out from the blunted end. The contents are emptied into round-bottom sterilized glass bowls, covered with petri dish covers and incubated at 90% relative humidity and 3% carbon dioxide.
MDAY-D2 cells (a murine lymphoid tumor) are injected into mice and allowed to grow into tumors weighing 0.5-1.0 g. The mice are sacrificed, the tumor sites wiped with alcohol, excised, placed in sterile tissue culture media, and diced into 1 mm pieces under a laminar flow hood. Prior to placing the dissected tumors onto the […] chick embryos, CAM surfaces are gently scraped with a 30 gauge needle to ensure tumor implantation. The tumors are then placed on the CAMs after 8 days of incubation (4 days after deshelling), and allowed to grow on the CAM for four days to establish a vascular supply. Four embryos are prepared utilizing this method, each embryo receiving 3 tumors. On day 12, each of the 3 tumors on the embyros received either 20% paclitaxel-loaded thermopaste, unloaded thermopaste, or no treatment. The treatments were continued for two days before the results were recorded.
The explanted MDAY-D2 tumors secrete angiogenic factors which induce the ingrowth of capillaries (derived from the CAM) into the tumor mass and allow it to continue to grow in size. Since all the vessels of the tumor are derived from the CAM, while all the tumor cells are derived from the explant, it is possible to assess the effect of therapeutic interventions on these two processes independently. This assay has been used to determine the effectiveness of paclitaxel-loaded thermopaste on: (a) inhibiting the vascularization of the tumor and (b) inhibiting the growth of the tumor cells themselves.

synoviocytes = experiment: 3H-thymidine incorporation into synoviocytes; assay type: cell-based; conditions: 6 or 24 hours
Description: At these times, 1×10^−6 cpm of ^3H-thymidine was added to the cell culture and incubated for 2 hours at 37° C. The cells were placed through a cell harvester, washed through a filter, the filters were cut, and the amount of radiation contained in the filter sections determined. Once the amount of thymidine incorporated into the cells was ascertained, it was used to determine the rate of cell proliferation. This experiment was repeated three times and the data collated.

[5] = tested on: restenosis / intimal hyperplasia; experiment: Rat carotid artery balloon injury model of restenosis, perivascular treatment; assay type: in vivo; conditions: paclitaxel-loaded (20%) polymers (EVA film or PCL paste), 2.5 mg perivascular; 14 and 28 days
Description: WISTAR rats weighing 250 to 300 g were anesthetized by the intramuscular injection of Innovar (0.33 ml/kg). Once sedated they were then placed under Halothane anesthesia After general anesthesia was established, fur over the neck region was shaved, the skin clamped and swabbed with betadine. A vertical incision was made over the left carotid artery and the external carotid artery exposed. Two ligatures were placed around the external carotid artery and a transverse arteriotomy was made. […] The endothelium was denuded by passing the inflated balloon up and down the carotid artery three times. The catheter was then removed and the ligature tied off on the left external carotid artery. […] The wound was then closed.

CC(=O)O[C@H]1C(=O)[C@@]2(C)[C@H]([C@H](OC(=O)c3ccccc3)[C@]3(O)C[C@H](OC(=O)[C@H](O)[C@@H](NC(=O)c4ccccc4)c4ccccc4)C(C)=C1C3(C)C)[C@]1(OC(C)=O)CO[C@@H]1C[C@@H]2O [paclitaxel]
Adhesion-Free: number of uterine horns free of adhesions/total (adhesion formation; 0.1% in vehicle): 0/20 | Convolution: number of uterine horns with no convolution/partial convolution/full convolution (adhesion formation; 0.1% in vehicle): 16/2/2† | Extent: length of uterine horn with adhesions (± Standard Error of the Mean) (adhesion formation; 0.1% in vehicle): 2.925 (0.338)* cm | Extent: length of uterine horn with adhesions (± Standard Error of the Mean) (adhesion formation; 0.1% in vehicle, listed as Paclitaxel): 2.925±0.338 cm | Adhesion-Free: number of uterine horns free of adhesions/total (adhesion formation; 1% in vehicle): 0/18 | Convolution: number of uterine horns with no convolution/partial convolution/full convolution (adhesion formation; 1% in vehicle): 18/0/0‡ | Extent: length of uterine horn with adhesions (± Standard Error of the Mean) (adhesion formation; 1% in vehicle): 2.028±0.374 cm | Extent: length of uterine horn with adhesions (± Standard Error of the Mean) (adhesion formation; 1% in vehicle, listed as paclltaxel): 2.028 (0.374)** cm | LDH release (neutrophils): less than 5 % of total | number of fibrous astrocytes [1]: decreased significantly | IL-1 induced AP-1 binding activity [2]: decreased | Paclitaxel concentration at saturation, Average ([3]; Ethanol): 68.91 mg/mL | Paclitaxel concentration at saturation, Average ([3]; Isopropyl myristate): 0.43 mg/mL | Paclitaxel concentration at saturation, Average ([3]; Oleic acid): 0.31 mg/mL | Paclitaxel concentration at saturation, Average ([3]; Propylene glycol): 21.56 mg/mL | Paclitaxel concentration at saturation, Average ([3]; Transcutol): 346.9 mg/mL | Paclitaxel concentration at saturation, Average ([3]; Transcutol, listed as Paclitaxel): 346.85 mg/mL | Paclitaxel concentration at saturation, Average ([3]; Transcutol:isopropyl myristate (9:1 v:v)): 353.9 mg/mL | Paclitaxel concentration at saturation, Average ([3]; Transcutol:isopropyl myristate (9:1 v:v), listed as Paclitaxel): 353.93 mg/mL | concentration inhibiting collagenase expression in vitro (collagenase (MMP-1) mRNA): 10^−6 M | collagenase mRNA levels (collagenase (MMP-1) mRNA; 10^−5 M, pretreatment 24 hours, IL-1): complete inhibition | concentrations inducing endothelial cell apoptosis (EOMA cells): greater than 10^−8 M | blood vessels in the immediate periphery of the tumor ([4]; two days): 14 | small capillaries in the tumor mass ([4]; two days): 3-4 | tumor vascularity ([4]; all 4 embryos): suppressing tumor vascularity | inhibits incorporation of 3H-thymidine at concentrations as low as (synoviocytes): 10^−8 M | restenosis [5]: completely prevented restenosis

— US6689803B2, “Compositions and methods for treating surgical adhesions” (Angiotech Pharmaceuticals, Inc., priority 1996, dated 2004)
